Reference: patent publication US20250188149A1, “ENHANCING ESTROGEN RECEPTOR ALPHA IN OSTEOARTHRITIS” (University of Pittsburgh - Of the Commonwealth System of …, priority 2022, published 2025)

Tests used:
[1] = tested on: healthy human chondrocytes; assay: DOX-induced DNA damage and senescence in healthy human chondrocytes; conditions: 100 nM DOX, 3 days, vs vehicle
[2] = patients with knee OA, intra-articular injection, phase II clinical trial, vs placebo; cited from earlier work

Row | SMILES | DNA damage (p21, γH2AX levels, comet assay) [1] | IL-6 and IL-8 expression (real-time qPCR) [1] | NF-κB pathway (NFκB gene, p-p65) [1] | SA-β-Gal staining (senescent phenotype) [1] | p16INK4A and p21 levels [1] | ERα level ([1]; western blot and IF) | reduction of joint pain and stiffness [2]
1 | COc1cccc2c1C(=O)c1c(O)c3c(c(O)c1C2=O)C[C@@](O)(C(=O)CO)C[C@@H]3O[C@H]1C[C@H](N)[C@H](O)[C@H](C)O1 [DOX, doxorubicin] | significant DNA damage | upregulation | activated | increased | upregulation | significantly reduced | –
2 | CC1(C)CCC(c2ccc(Cl)cc2)=C(CN2CCN(c3ccc(C(=O)NS(=O)(=O)c4ccc(N[C@H](CCN5CCOCC5)CSc5ccccc5)c(S(=O)(=O)C(F)(F)F)c4)cc3)CC2)C1 [ABT-263] | – | – | – | – | – | – | failed to outperform a placebo
